Test results published in PMC7722354, “7-Substituted 2-Nitro-5,6-dihydroimidazo[2,1-b][1,3]oxazines: Novel Antitubercular Agents Lead to a New Preclinical Candidate for Visceral Leishmaniasis” (Journal of Medicinal Chemistry, 2017).
Values after ≈ are worked out from the molar mass of the structure shown. Where two headings read alike, the source gives them in different places. Marks after values point to notes of the source that are not given here.

Legend:
Leishmania donovani [1] = test: L. don amastigote mouse macrophage-based luciferase assay (CDRI); type: cell-based; details: in mouse macrophages, single test (CDRI)
Leishmania infantum = test: L. inf growth inhibition in mouse macrophages (LMPH); type: cell-based; details: Macrophage, mean of at least two determinations
Trypanosoma cruzi = test: T. cruzi growth inhibition on MRC-5 cells (LMPH); type: cell-based; details: MRC5
[2] = system: human lung fibroblasts (MRC-5 cells); test: cytotoxicity toward MRC-5 cells (LMPH); type: cell-based; details: MRC5
M. tb, strain H37Rv [3] = test: MABA minimum inhibitory concentration assay (aerobic); type: cell-based, Mycobacterium tuberculosis; details: Mycobacterium tuberculosis, H37RV
M. tb, strain H37Rv [4] = test: LORA minimum inhibitory concentration assay (hypoxic); type: cell-based; details: Mycobacterium tuberculosis
[5] = kinetic aqueous solubility (Method A); type: physicochemical; details: water, pH 7, kinetic
L. donovani [6] = test: acute VL infection assay (L. don mouse model, LSHTM); details: Leishmania donovani, po, 120 h; 50 mg/kg orally once daily 5 days; liver parasite burden; read-out: in vivo efficacy against L. don (mouse), % inhibition
mouse pharmacokinetics = type: in vivo; details: mice, oral 40 mg/kg
L. donovani [7] = details: L. don hamster model, 50 mg/kg, 5 days oral dosing
Protocol: Groups of hamsters having an appropriate infection grading (5–15 amastigotes/100 spleen cell nuclei) were treated with test compounds, starting on day 17 and dosing orally once per day for 5 days, according to the usual procedure.[10] Post-treatment splenic biopsies taken 12 days after the first dose were employed to determine the intensity of infection, as previously reported.[10]

Leishmania donovani [8] = system: Leishmania donovani; set-up: method as in PMID 26901446; details: in mouse macrophages; cited from earlier work
[9] = system: Salmonella strains (TA98 and TA100)
Description: Ames Test. […] Two Salmonella strains (TA98 and TA100) were employed, both in the presence and absence of metabolic activation (rat liver S9). Positive controls (2-aminoanthracene, 2-nitrofluorene, and sodium azide) and a negative (DMSO solvent) control were included.

[10] = system: human lung fibroblasts (MRC-5 cells); set-up: method as in PMID 26901446; details: cytotoxicity; cited from earlier work
Caco-2 = details: cited from earlier work

In the case of `O=[N+]([O-])c1cn2c(n1)OC(COCc1ccc(-c3ccc(OC(F)(F)F)cc3)cc1)CC2` (centres unmarked) [compound 28], the IC50 (Leishmania donovani [1]) is reported as 190 nM, the IC50 (Leishmania infantum) is reported as 400 nM and the IC50 (Trypanosoma cruzi) is reported as 2100 nM. For the same molecule, the IC50 [2] was > 64000 nM, the MIC (M. tb, strain H37Rv [3]; aerobic, read-out: MIC MABA) was 0.055 µM (≈ 0.0247 µg/mL) and the MIC (M. tb, strain H37Rv [4]) was 1.5 µM (≈ 0.674 µg/mL). For the same molecule, the solubility at 15 min ([5]; pH 7, read-out: solubility at pH 7) was ~0.058 µg/mL (≈ 0.129 µM), the solubility at 15 min ([5]; water (pH 7), 20 °C, read-out: aq solubility pH 7) was 0.058 µg/mL (≈ 0.129 µM) and the inhibition in vivo at 50 mg/kg (L. donovani [6]) was 49%. For the same molecule, the “AUCinf (extrapolated)” value (mouse pharmacokinetics) was 47.1^e μ·h/mL, the Cmax (mouse pharmacokinetics) was 3300 ng/mL and the Tmax (mouse pharmacokinetics) was 8.0 h. It also gave a t1/2 (mouse pharmacokinetics) of 5.2 h.

For `O=[N+]([O-])c1cn2c(n1)OC(COc1ccc(-c3ccc(F)cc3)cc1)CC2` (centres unmarked) [compound 49], the IC50 (Leishmania donovani [1]) was 10 nM, the MIC (M. tb, strain H37Rv [3]; read-out: MIC MABA, aerobic) was 0.18 µM (≈ 0.0665 µg/mL) and the MIC (M. tb, strain H37Rv [4]) was > 128 µM. The “% inhibition of parasite infection in the spleen” value (L. donovani [7]) was 51%.

For `C[C@]1(COc2ccc(OC(F)(F)F)cc2)Cn2cc([N+](=O)[O-])nc2O1` [compound 4], the IC50 (Leishmania donovani [8]) is given as 30 nM, the “mutagenic effect (Ames test)” value [9] is given as “no” and the IC50 [10] is given as > 64000 nM. The logD (physchem) was 3.1, the “permeability Papp A to B” value (Caco-2) was 22.6 × 10^–6 cm/s and the “permeability Papp B to A” value (Caco-2) was 24.7 × 10^–6 cm/s.
